What is called pIC50 is −log10 of the IC50, conventionally taken in molar units. As usually defined, the melting point is the temperature of the solid-liquid transition.

The test system of one series is Giardia. Further details: method as in Cedillo-Rivera and Munoz, 1992. Conditions: anaerobic conditions; ref Cedillo-Rivera and Munoz, 1992; read-out: IC50 against Giardia under anaerobic conditions; cited from earlier work.
Series [1] relates to Giardia intestinalis trophozoites. The experiment in a line: Drug susceptibility of Giardia trophozoites, ATP level by luminescence (BacTiter-Glo), 48 h incubation, anaerobic or microaerobic. It counts as cell-based, Giardia intestinalis strain WB clone C6. The following applies: for pIC50: Giardia duodenalis, 48 h, 37 °C, ATP level; for selectivity ratio at 48 h: human (Caco-2 cells) versus Giardia intestinalis, Caco-2, SI = IC50,Caco-2/IC50,Giardia. On the procedure: Trophozoites of G. intestinalis strain WB clone C6 (ATCC No. 50803TM) were cultured axenically at 37^∘C in 25-cm^2 flasks containing Diamond's TYI-S-33 medium supplemented with 10% bovine calf serum, 1 mg/mL bovine bile, 0.1 g/L streptomycin and 100 U/mL penicillin. Typically, 50 ml medium was inoculated with 25 × 10^6 cells and after 2 days cells were harvested by chilling the flasks on ice for 30 min for drug susceptibility assays. […] The assays were performed following the procedure described in [Bahadur et al. (2014)], using sterile 96-well white clear-bottom plates. […] Each drug concentration was tested in at least six replicates. MTZ was used as an internal positive control in the assay. The microtiter plates were then incubated at 37^∘C under anaerobic or microaerobic conditions, ensured by the Anaerocult® A or the Anaerocult® […] (Merck), respectively. […] Following 48 h incubation with the compound to be tested, 100 μL of the BacTiter-Glo^TM Microbial Cell Viability Assay System reagent (Promega) was added to each well for one-step lysis and ATP level detection. Plates were then incubated at room temperature for 15 min and ATP levels finally detected by luminescence on a plate reader (Wallac Victor3 1420 Multilabel Counter, PerkinElmer). Luminometric data were calibrated using ATP standard curves and normalized to the ATP level measured in control DMSO-treated cells (taken as 100%). The measured ATP level percentage was plotted as a function of the compound concentration and the half-maximal inhibitory concentration (IC50) was obtained by fitting the resulting titration profile to the Hill equation ([Goutelle et al., 2008]). The selectivity index (SI) of the compounds was then calculated as the ratio between the IC50 value measured on human cells over the value determined on Giardia trophozoites (SI = IC50,Caco-2/IC50,Giardia). The antigiardial activity of the novel compounds 23-67 was tested under both anaerobic and microaerobic conditions. According to ([Dunn et al., 2010]; [Bahadur et al., 2014]), susceptibility of Giardia trophozoites to increasing concentrations of each compound was assessed based on ATP level determination by luminescence. Dose-response curves for each compound were obtained after 48 h-incubation and compared to the data collected under identical conditions with MTZ, the drug of choice for treatment of giardiasis. […] Typical dose-response curves are shown in Figure 2, whereas the IC50 values measured for the synthetic compounds and MTZ under anaerobic and microaerobic conditions are reported in Table 1. […] Under anaerobic conditions, 18 out of the 45 synthetic compounds were as effective as MTZ or more under identical conditions (see Table 1).

A further series deals with Caco-2 cells. The experiment in a line: Counter-screen on Caco-2 cells, ATP level by luminescence (ATPlite), 48 h incubation. The class given is cell-based, human. The following applies: atmospheric O2, 5% CO2, 48 h, 37 °C. On the procedure:
Trophozoites of G. intestinalis strain WB clone C6 (ATCC No. 50803TM) were cultured axenically at 37^∘C in 25-cm^2 flasks containing Diamond’s TYI-S-33 medium supplemented with 10% bovine calf serum, 1 mg/mL bovine bile, 0.1 g/L streptomycin and 100 U/mL penicillin. […] Human epithelial colorectal adenocarcinoma (Caco-2) cells were grown in 25-cm^2 flasks in EMEM supplemented with 1% (v/v) non-essential amino acids, 2 mM glutamine, 5% (v/v) fetal bovine serum, 0.1 g/L streptomycin, and 100 U/mL penicillin.
Cells were detached with 0.5% trypsin-EDTA and seeded in sterile 96-well white clear-bottom plates at the same density of Giardia trophozoites and at increasing concentration of the compound to be tested, as described above. The assays were carried out exactly as reported for the Giardia trophozoites, except that the plates were incubated (still at 37^∘C) at atmospheric O2 level, 5% CO2, and 95% humidity. Each drug concentration was tested in at least seven replicates. MTZ was used as an internal […] control in the assay. Following 48 h incubation with each compound, according to the manufacturer instructions, 100 μL of the ATPlite^TM luminescence assay system (Perkin Elmer) was added to each well for one-step lysis and ATP level detection by luminescence.
Luminometric data were calibrated using ATP standard curves and normalized to the ATP level measured in control DMSO-treated cells (taken as 100%). The measured ATP level percentage was plotted as a function of the compound concentration and the half-maximal inhibitory concentration (IC50) was obtained by fitting the resulting titration profile to the Hill equation ([Goutelle et al., 2008]). The selectivity index (SI) of the compounds was then calculated as the ratio between the IC50 value measured on human cells over the value determined on Giardia trophozoites (SI = IC50,Caco-2/IC50,Giardia).
Selectivity of the newly synthesized compounds toward Giardia was assessed by running a counter-screen on human epithelial Caco-2 cells. […] This allowed us to calculate the compounds SI, defined as the ratio between the IC50 value measured on human cells over the value determined on Giardia trophozoites.
(Counterscreens check selectivity or assay interference.)

[2] abbreviates: anaerobic conditions (Anaerocult A), read-out: Giardia (anaerobiosis) IC50.
Setting [3] is: microaerobic conditions (~5% O2, Anaerocult C), read-out: Giardia (microaerobiosis) IC50.
Setting [4] is: Giardia under anaerobiosis, read-out: Selectivity (IC50,Caco/IC50,Giardia) Anaerobiosis.
The mark [5] stands for this setting: Giardia under microaerobiosis, read-out: Selectivity (IC50,Caco/IC50,Giardia) Microaerobiosis.

pIC50: −log10 of the molar value. Like-named read-outs stand apart in the source and are kept apart here.

Take `CCCSc1ccc2nc(NC(=O)OC)[nH]c2c1` [albendazole]: in the series with Giardia, the pIC50 was above 7.00.

The compound `COc1ccc(-n2cc(Cn3c(=O)c(/C=C/C(=O)c4ccc(C)cc4)cc4ccccc43)nn2)cc1` [Compound 28] returned a melting point of 213 to 215 °C. For the same compound, the pIC50 in series [1] (setting [2]) was 5.27. Further, the negative-log IC50 (pIC50) in series [1] (setting [3]) is 5.82. Further, the selectivity ratio at 48 h in series [1] (setting [4]) is at least 14. Moreover, the selectivity ratio at 48 h in series [1] (setting [5]) was at least 53. Also, the pIC50 in the series on Caco-2 cells (Homo sapiens, Caco-2, 48 h) is at most 4.10.

On to `COc1cccc(C(=O)/C=C/c2cc3ccccc3n(Cc3cn(-c4ccc(Cl)cc4)nn3)c2=O)c1` [Compound 57], for which the melting point is 215 to 217 °C. In addition, the negative logarithm of the IC50 (pIC50) in series [1] (setting [2]) is 5.18. The pIC50 in series [1] (setting [3]) was 5.96. Further, in series [1] (setting [4]), the selectivity ratio at 48 h is 2.2. For the same compound, the selectivity ratio at 48 h in series [1] (setting [5]) was 11.3. This compound had a pIC50 in the series on Caco-2 cells (Homo sapiens, Caco-2, 48 h) of 4.83.

Regarding `O=C(/C=C/c1cc2ccccc2n(Cc2cn(-c3ccc(Cl)cc3)nn2)c1=O)c1cccc(F)c1` [Compound 51], the melting point fell in the range of 190 to 192 °C. Moreover, in series [1] (setting [2]), the negative-log IC50 (pIC50) was 5.00. The pIC50 in series [1] (setting [3]) is 6.05. In addition, the selectivity ratio at 48 h in series [1] (setting [4]) is at least 10. In series [1] (setting [5]), the selectivity ratio at 48 h was at least 111. The compound also showed a pIC50 in the series with Caco-2 cells (Homo sapiens, Caco-2, 48 h) of at most 4.00.

Regarding `Cc1ccc(-n2cc(Cn3c(=O)c(/C=C/C(=O)c4ccc(Cl)cc4)cc4ccccc43)nn2)cc1` [Compound 35], the melting point was in the range of 196 to 198 °C. The negative logarithm of the IC50 (pIC50) in series [1] (setting [2]) is 5.62. For the same compound, the negative-log IC50 (pIC50) in series [1] (setting [3]) is 6.10. In series [1] (setting [4]), the selectivity ratio at 48 h was 2.9. Moreover, the selectivity ratio at 48 h in series [1] (setting [5]) is 8.8. This compound also had a pIC50 in the series on Caco-2 cells (Homo sapiens, Caco-2, 48 h) of 5.15.

For `O=C(/C=C/c1cc2ccccc2n(Cc2cn(-c3ccc(F)cc3)nn2)c1=O)c1cccc(F)c1` [Compound 42], the melting point fell in the range of 203 to 205 °C. Also, in series [1] (setting [2]), the negative-log IC50 (pIC50) was 5.48. The negative-log IC50 (pIC50) in series [1] (setting [3]) was 6.15. Moreover, the selectivity ratio at 48 h in series [1] (setting [4]) came out at 2.9. Further, the selectivity ratio at 48 h in series [1] (setting [5]) was 13.7. The negative logarithm of the IC50 (pIC50) with Caco-2 cells (Homo sapiens, Caco-2, 48 h) was 5.02.

With `COc1ccc(-n2cc(Cn3c(=O)c(/C=C/C(=O)c4ccc(Cl)cc4)cc4ccccc43)nn2)cc1` [Compound 26], the melting point was in the range of 230 to 232 °C. In series [1] (setting [2]), the negative-log IC50 (pIC50) was 5.30. Also, in series [1] (setting [3]), the pIC50 is 5.59. Besides, the selectivity ratio at 48 h in series [1] (setting [4]) is at least 4. Moreover, the selectivity ratio at 48 h in series [1] (setting [5]) is at least 7. In the series on Caco-2 cells (Homo sapiens, Caco-2, 48 h), this compound showed a pIC50 of at most 4.70.

In turn, `O=C(/C=C/c1cc2ccccc2n(Cc2cn(-c3ccc(Cl)cc3)nn2)c1=O)c1ccc(F)cc1` [Compound 52] had a melting point of 216 to 218 °C. Besides, the negative logarithm of the IC50 (pIC50) in series [1] (setting [2]) is 5.05. Further, the negative logarithm of the IC50 (pIC50) in series [1] (setting [3]) is 5.92. Moreover, the selectivity ratio at 48 h in series [1] (setting [4]) came to 2.7. Further, the selectivity ratio at 48 h in series [1] (setting [5]) was 19.9. Besides, the pIC50 in the series with Caco-2 cells (Homo sapiens, Caco-2, 48 h) was 4.62.

As for `COc1cccc(C(=O)/C=C/c2cc3ccccc3n(Cc3cn(-c4ccccc4)nn3)c2=O)c1` [Compound 66], the melting point fell in the range of 224 to 226 °C. Moreover, the negative-log IC50 (pIC50) in series [1] (setting [2]) is 5.49. Also, the pIC50 in series [1] (setting [3]) was 5.80. Besides, the selectivity ratio at 48 h in series [1] (setting [4]) was above 15. The selectivity ratio at 48 h in series [1] (setting [5]) was above 30. The compound further showed a pIC50 in the series with Caco-2 cells (Homo sapiens, Caco-2, 48 h) of at most 4.40. In the series with Caco-2 cells, the pIC50 is at most 4.30.

Compound `COc1ccc(C(=O)/C=C/c2cc3ccccc3n(Cc3cn(-c4ccc(OC)cc4)nn3)c2=O)cc1` [Compound 31] registered a melting point of 190 to 192 °C. Further, in series [1] (setting [2]), the pIC50 was at most 4.30. Also, the pIC50 in series [1] (setting [3]) is 5.70. For the same compound, in series [1] (setting [5]), the selectivity ratio at 48 h was at least 40. In addition, in the series on Caco-2 cells (Homo sapiens, Caco-2, 48 h), the negative-log IC50 (pIC50) was at most 4.10.

`COc1ccc(C(=O)/C=C/c2cc3ccccc3n(Cc3cn(-c4ccccc4)nn3)c2=O)cc1` [Compound 67] yielded a melting point of 215 to 217 °C. Besides, in series [1] (setting [2]), the pIC50 is 5.23. In series [1] (setting [3]), the negative logarithm of the IC50 (pIC50) is 6.10. Besides, the selectivity ratio at 48 h in series [1] (setting [4]) was at least 16. In series [1] (setting [5]), the selectivity ratio at 48 h was at least 125. The pIC50 in the series on Caco-2 cells (Homo sapiens, Caco-2, 48 h) is at most 4.00.

As to `O=C(/C=C/c1cc2ccccc2n(Cc2cn(-c3ccc(Cl)cc3)nn2)c1=O)c1ccccc1F` [Compound 50], the melting point was in the range of 242 to 244 °C. The pIC50 in series [1] (setting [2]) was 5.33. Besides, in series [1] (setting [3]), the pIC50 is 6.05. Moreover, the selectivity ratio at 48 h in series [1] (setting [4]) is at least 10. In addition, the selectivity ratio at 48 h in series [1] (setting [5]) was at least 55. In the series with Caco-2 cells (Homo sapiens, Caco-2, 48 h), this compound showed a pIC50 of at most 4.30.

The record behind these values is PMC4389562, “Antigiardial activity of novel triazolyl-quinolone-based chalcone derivatives: when oxygen makes the difference” (Frontiers in Microbiology, 2015).
